Measured values: ChEMBL document CHEMBL1629674, “Surveillance of carbapenem-resistant Pseudomonas aeruginosa isolates from Puerto Rican Medical Center Hospitals: dissemination of KPC and IMP-18 beta-lactamases” (2009)
Converted amounts (≈) assume the structure as drawn.

How the values were obtained:
Pseudomonas aeruginosa [1] = assay: Antimicrobial activity against OprD overproducing Pseudomonas aeruginosa PAO1 expressing mexA and oprD by agar dilution method; format: functional
Pseudomonas aeruginosa [2] = assay: Antimicrobial activity against Pseudomonas aeruginosa PS44 with PFGE phenotype 13 expressing beta-lactamase IMP-18 obtained from blood of patient by agar dilution method; format: functional
Pseudomonas aeruginosa [3] = assay: Antimicrobial activity against Pseudomonas aeruginosa PS18A with PFGE phenotype 11D obtained from CSF of ICU patient by agar dilution method; format: functional
Pseudomonas aeruginosa [4] = assay: Antimicrobial activity against Pseudomonas aeruginosa PS25 with PFGE phenotype 1A obtained from sputum of patient by agar dilution method; format: functional
Pseudomonas aeruginosa [5] = assay: Antimicrobial activity against Pseudomonas aeruginosa PS9 with PFGE phenotype 3B obtained from sputum of patient by agar dilution method; format: functional
Pseudomonas aeruginosa [6] = assay: Antimicrobial activity against Pseudomonas aeruginosa PS34 with PFGE phenotype 4A obtained from blood of ICU patient by agar dilution method; format: functional
Pseudomonas aeruginosa [7] = assay: Antimicrobial activity against Pseudomonas aeruginosa PS28 with PFGE phenotype 6 expressing beta-lactamase KPC-5 obtained from skin of patient by agar dilution method; format: functional
Pseudomonas aeruginosa [8] = assay: Antimicrobial activity against Pseudomonas aeruginosa PS31 with PFGE phenotype 11B obtained from skin of patient by agar dilution method; format: functional
Pseudomonas aeruginosa [9] = assay: Antimicrobial activity against Pseudomonas aeruginosa PS39 with PFGE phenotype 8 expressing beta-lactamase IMP-18 obtained from urine of patient by agar dilution method; format: functional
Pseudomonas aeruginosa [10] = assay: Antimicrobial activity against Pseudomonas aeruginosa PS22 with PFGE phenotype 3A obtained from urine of patient by agar dilution method; format: functional
Pseudomonas aeruginosa [11] = assay: Antimicrobial activity against Pseudomonas aeruginosa PS17B with PFGE phenotype 11D expressing beta-lactamase KPC-2 obtained from blood of ICU patient by agar dilution method; format: functional
Pseudomonas aeruginosa [12] = assay: Antimicrobial activity against Pseudomonas aeruginosa PS12 with PFGE phenotype 7B obtained from sputum of patient by agar dilution method; format: functional
Pseudomonas aeruginosa [13] = assay: Antimicrobial activity against Pseudomonas aeruginosa PS33 with PFGE phenotype 9A obtained from blood of patient by agar dilution method; format: functional
Pseudomonas aeruginosa [14] = assay: Antimicrobial activity against Pseudomonas aeruginosa PS21 with PFGE phenotype 11F obtained from skin of patient by agar dilution method; format: functional
Pseudomonas aeruginosa [15] = assay: Antimicrobial activity against Pseudomonas aeruginosa PS30 with PFGE phenotype 11D obtained from sputum of patient by agar dilution method; format: functional
Pseudomonas aeruginosa [16] = assay: Antimicrobial activity against Pseudomonas aeruginosa PS20A with PFGE phenotype 11D obtained from skin of patient by agar dilution method; format: functional
Pseudomonas aeruginosa [17] = assay: Antimicrobial activity against Pseudomonas aeruginosa PS14 with PFGE phenotype 10C obtained from sputum of ICU patient by agar dilution method; format: functional
Pseudomonas aeruginosa [18] = assay: Antimicrobial activity against Pseudomonas aeruginosa PS36 with PFGE phenotype 11B obtained from urine of patient by agar dilution method; format: functional
Pseudomonas aeruginosa [19] = assay: Antimicrobial activity against Pseudomonas aeruginosa PS35 with PFGE phenotype 11A obtained from urine of patient by agar dilution method; format: functional
Pseudomonas aeruginosa [20] = assay: Antimicrobial activity against Pseudomonas aeruginosa PS10 with PFGE phenotype 1A expressing beta-lactamase KPC-2 obtained from blood of patient by agar dilution method; format: functional
Pseudomonas aeruginosa [21] = assay: Antimicrobial activity against Pseudomonas aeruginosa PS1 with PFGE phenotype 9C negative for blaIMP, blaVIM and blaKPC obtained from sputum of patient by agar dilution method
Pseudomonas aeruginosa [22] = assay: Antimicrobial activity against Pseudomonas aeruginosa PS6A with PFGE phenotype 11A obtained from sputum of ICU patient by agar dilution method; format: functional
Pseudomonas aeruginosa [23] = assay: Antimicrobial activity against Pseudomonas aeruginosa PS4 with PFGE phenotype 9B expressing beta-lactamase IMP-18 obtained from sputum of patient by agar dilution method; format: functional
Pseudomonas aeruginosa [24] = assay: Antimicrobial activity against Pseudomonas aeruginosa PS7A with PFGE phenotype 11D obtained from urine of ICU patient by agar dilution method; format: functional
Pseudomonas aeruginosa [25] = assay: Antimicrobial activity against Pseudomonas aeruginosa PS26 with PFGE phenotype 3A expressing beta-lactamase OXA-2 obtained from sputum of ICU patient by agar dilution method; format: functional
Pseudomonas aeruginosa [26] = assay: Antimicrobial activity against Pseudomonas aeruginosa PS2 with PFGE phenotype 10B obtained from urine of ICU patient by agar dilution method; format: functional
Pseudomonas aeruginosa [27] = assay: Antimicrobial activity against Pseudomonas aeruginosa PS19A with PFGE phenotype 11C obtained from urine of patient by agar dilution method; format: functional
Pseudomonas aeruginosa [28] = assay: Antimicrobial activity against Pseudomonas aeruginosa PS15A with PFGE phenotype 10A obtained from blood of patient by agar dilution method; format: functional
Pseudomonas aeruginosa [29] = assay: Antimicrobial activity against Pseudomonas aeruginosa PS41 with PFGE phenotype 11D obtained from urine of patient by agar dilution method; format: functional
Pseudomonas aeruginosa [30] = assay: Antimicrobial activity against Pseudomonas aeruginosa PS11A with PFGE phenotype 7A obtained from sputum of ICU patient by agar dilution method; format: functional
Pseudomonas aeruginosa [31] = assay: Antimicrobial activity against Pseudomonas aeruginosa PS23 with PFGE phenotype 4A expressing beta-lactamase KPC-2 obtained from blood of patient by agar dilution method; format: functional
Pseudomonas aeruginosa [32] = assay: Antimicrobial activity against Pseudomonas aeruginosa PS3 with PFGE phenotype 12 obtained from sputum of ICU patient by agar dilution method; format: functional
Pseudomonas aeruginosa [33] = assay: Antimicrobial activity against Pseudomonas aeruginosa PS5 with PFGE phenotype 7A expressing beta-lactamase KPC-2 obtained from sputum of ICU patient by agar dilution method; format: functional
Pseudomonas aeruginosa [34] = assay: Antimicrobial activity against Pseudomonas aeruginosa PS37 with PFGE phenotype 11D obtained from sputum of patient by agar dilution method; format: functional
Pseudomonas aeruginosa [35] = assay: Antimicrobial activity against Pseudomonas aeruginosa PS29 with PFGE phenotype 11D obtained from sputum of patient by agar dilution method; format: functional
Pseudomonas aeruginosa [36] = assay: Antimicrobial activity against Pseudomonas aeruginosa PS43 with PFGE phenotype 2 expressing beta-lactamase KPC-2, OXA-2 obtained from skin of ICU patient by agar dilution method; format: functional
Pseudomonas aeruginosa [37] = assay: Antimicrobial activity against Pseudomonas aeruginosa PS13 with PFGE phenotype 11E obtained from sputum of ICU patient by agar dilution method; format: functional
Pseudomonas aeruginosa [38] = assay: Antimicrobial activity against Pseudomonas aeruginosa PS40 with PFGE phenotype 5 expressing beta-lactamase KPC-2, OXA-2 obtained from urine of patient by agar dilution method; format: functional

C[C@@H](O)[C@H]1C(=O)N2C(C(=O)O)=C(SCCNC=N)C[C@H]12 [IMIPENEM ANHYDROUS]
MIC (Pseudomonas aeruginosa [1]): 1 µg/mL (≈ 3.34 µM) | MIC (Pseudomonas aeruginosa [2]): 64 µg/mL (≈ 214 µM) | MIC (Pseudomonas aeruginosa [3]): > 64 µg/mL | MIC (Pseudomonas aeruginosa [4]): > 64 µg/mL | MIC (Pseudomonas aeruginosa [5]): 8 µg/mL (≈ 26.7 µM) | MIC (Pseudomonas aeruginosa [6]): > 64 µg/mL | MIC (Pseudomonas aeruginosa [7]): > 64 µg/mL | MIC (Pseudomonas aeruginosa [8]): > 64 µg/mL | MIC (Pseudomonas aeruginosa [9]): > 64 µg/mL | MIC (Pseudomonas aeruginosa [10]): 8 µg/mL (≈ 26.7 µM) | MIC (Pseudomonas aeruginosa [11]): > 64 µg/mL | MIC (Pseudomonas aeruginosa [12]): > 64 µg/mL | MIC (Pseudomonas aeruginosa [13]): 64 µg/mL (≈ 214 µM) | MIC (Pseudomonas aeruginosa [14]): > 64 µg/mL | MIC (Pseudomonas aeruginosa [15]): > 64 µg/mL | MIC (Pseudomonas aeruginosa [16]): > 64 µg/mL | MIC (Pseudomonas aeruginosa [17]): 64 µg/mL (≈ 214 µM) | MIC (Pseudomonas aeruginosa [18]): > 64 µg/mL | MIC (Pseudomonas aeruginosa [19]): > 64 µg/mL | MIC (Pseudomonas aeruginosa [20]): > 64 µg/mL | MIC (Pseudomonas aeruginosa [21]): 16 µg/mL (≈ 53.4 µM) | MIC (Pseudomonas aeruginosa [22]): > 64 µg/mL | MIC (Pseudomonas aeruginosa [23]): > 64 µg/mL | MIC (Pseudomonas aeruginosa [24]): > 64 µg/mL | MIC (Pseudomonas aeruginosa [25]): 8 µg/mL (≈ 26.7 µM) | MIC (Pseudomonas aeruginosa [26]): 64 µg/mL (≈ 214 µM) | MIC (Pseudomonas aeruginosa [27]): > 64 µg/mL | MIC (Pseudomonas aeruginosa [28]): 32 µg/mL (≈ 107 µM) | MIC (Pseudomonas aeruginosa [29]): > 64 µg/mL | MIC (Pseudomonas aeruginosa [30]): > 64 µg/mL | MIC (Pseudomonas aeruginosa [31]): > 64 µg/mL | MIC (Pseudomonas aeruginosa [32]): 16 µg/mL (≈ 53.4 µM) | MIC (Pseudomonas aeruginosa [33]): > 64 µg/mL | MIC (Pseudomonas aeruginosa [34]): > 64 µg/mL | MIC (Pseudomonas aeruginosa [35]): > 64 µg/mL | MIC (Pseudomonas aeruginosa [36]): 16 µg/mL (≈ 53.4 µM) | MIC (Pseudomonas aeruginosa [37]): > 64 µg/mL | MIC (Pseudomonas aeruginosa [38]): > 64 µg/mL

CC(C)(O/N=C(\C(=O)N[C@@H]1C(=O)N2C(C(=O)[O-])=C(C[n+]3ccccc3)CS[C@H]12)c1csc(N)n1)C(=O)O [CEFTAZIDIME]
MIC (Pseudomonas aeruginosa [1]): 1 µg/mL (≈ 1.83 µM) | MIC (Pseudomonas aeruginosa [2]): > 128 µg/mL | MIC (Pseudomonas aeruginosa [3]): 32 µg/mL (≈ 58.5 µM) | MIC (Pseudomonas aeruginosa [4]): 64 µg/mL (≈ 117 µM) | MIC (Pseudomonas aeruginosa [5]): 8 µg/mL (≈ 14.6 µM) | MIC (Pseudomonas aeruginosa [6]): 64 µg/mL (≈ 117 µM) | MIC (Pseudomonas aeruginosa [7]): 128 µg/mL (≈ 234 µM) | MIC (Pseudomonas aeruginosa [8]): 64 µg/mL (≈ 117 µM) | MIC (Pseudomonas aeruginosa [9]): > 128 µg/mL | MIC (Pseudomonas aeruginosa [10]): 16 µg/mL (≈ 29.3 µM) | MIC (Pseudomonas aeruginosa [11]): 64 µg/mL (≈ 117 µM) | MIC (Pseudomonas aeruginosa [12]): 64 µg/mL (≈ 117 µM) | MIC (Pseudomonas aeruginosa [13]): > 128 µg/mL | MIC (Pseudomonas aeruginosa [14]): 64 µg/mL (≈ 117 µM) | MIC (Pseudomonas aeruginosa [15]): 64 µg/mL (≈ 117 µM) | MIC (Pseudomonas aeruginosa [16]): 64 µg/mL (≈ 117 µM) | MIC (Pseudomonas aeruginosa [17]): 64 µg/mL (≈ 117 µM) | MIC (Pseudomonas aeruginosa [18]): 64 µg/mL (≈ 117 µM) | MIC (Pseudomonas aeruginosa [19]): 64 µg/mL (≈ 117 µM) | MIC (Pseudomonas aeruginosa [20]): 64 µg/mL (≈ 117 µM) | MIC (Pseudomonas aeruginosa [21]): 2 µg/mL (≈ 3.66 µM) | MIC (Pseudomonas aeruginosa [22]): 32 µg/mL (≈ 58.5 µM) | MIC (Pseudomonas aeruginosa [23]): > 128 µg/mL | MIC (Pseudomonas aeruginosa [24]): 64 µg/mL (≈ 117 µM) | MIC (Pseudomonas aeruginosa [25]): 8 µg/mL (≈ 14.6 µM) | MIC (Pseudomonas aeruginosa [26]): 128 µg/mL (≈ 234 µM) | MIC (Pseudomonas aeruginosa [27]): 64 µg/mL (≈ 117 µM) | MIC (Pseudomonas aeruginosa [28]): 128 µg/mL (≈ 234 µM) | MIC (Pseudomonas aeruginosa [29]): 64 µg/mL (≈ 117 µM) | MIC (Pseudomonas aeruginosa [30]): 32 µg/mL (≈ 58.5 µM) | MIC (Pseudomonas aeruginosa [31]): 128 µg/mL (≈ 234 µM) | MIC (Pseudomonas aeruginosa [32]): 4 µg/mL (≈ 7.32 µM) | MIC (Pseudomonas aeruginosa [33]): 64 µg/mL (≈ 117 µM) | MIC (Pseudomonas aeruginosa [34]): 64 µg/mL (≈ 117 µM) | MIC (Pseudomonas aeruginosa [35]): 64 µg/mL (≈ 117 µM) | MIC (Pseudomonas aeruginosa [36]): 16 µg/mL (≈ 29.3 µM) | MIC (Pseudomonas aeruginosa [37]): 64 µg/mL (≈ 117 µM) | MIC (Pseudomonas aeruginosa [38]): 32 µg/mL (≈ 58.5 µM)

C[C@@H](O)[C@H]1C(=O)N2C(C(=O)O)=C(S[C@@H]3CN[C@H](C(=O)N(C)C)C3)[C@H](C)[C@H]12 [MEROPENEM]
MIC (Pseudomonas aeruginosa [1]): 0.5 µg/mL (≈ 1.3 µM) | MIC (Pseudomonas aeruginosa [2]): 32 µg/mL (≈ 83.4 µM) | MIC (Pseudomonas aeruginosa [5]): 16 µg/mL (≈ 41.7 µM) | MIC (Pseudomonas aeruginosa [10]): 16 µg/mL (≈ 41.7 µM) | MIC (Pseudomonas aeruginosa [12]): 32 µg/mL (≈ 83.4 µM) | MIC (Pseudomonas aeruginosa [13]): 32 µg/mL (≈ 83.4 µM) | MIC (Pseudomonas aeruginosa [17]): 16 µg/mL (≈ 41.7 µM) | MIC (Pseudomonas aeruginosa [21]): 8 µg/mL (≈ 20.9 µM) | MIC (Pseudomonas aeruginosa [25]): 16 µg/mL (≈ 41.7 µM) | MIC (Pseudomonas aeruginosa [26]): 16 µg/mL (≈ 41.7 µM) | MIC (Pseudomonas aeruginosa [28]): 16 µg/mL (≈ 41.7 µM) | MIC (Pseudomonas aeruginosa [32]): 8 µg/mL (≈ 20.9 µM) | MIC (Pseudomonas aeruginosa [36]): 32 µg/mL (≈ 83.4 µM)
